Where two headings read alike, the source gives them in different places.
Assays:
GalR2 = target: T1, GalR2 (Homo sapiens, UniProt O43603); assay type: cell-based
T1 construct: expressed in transfected cells; host or cells: HEK293
T1 sequence (O43603 1-387): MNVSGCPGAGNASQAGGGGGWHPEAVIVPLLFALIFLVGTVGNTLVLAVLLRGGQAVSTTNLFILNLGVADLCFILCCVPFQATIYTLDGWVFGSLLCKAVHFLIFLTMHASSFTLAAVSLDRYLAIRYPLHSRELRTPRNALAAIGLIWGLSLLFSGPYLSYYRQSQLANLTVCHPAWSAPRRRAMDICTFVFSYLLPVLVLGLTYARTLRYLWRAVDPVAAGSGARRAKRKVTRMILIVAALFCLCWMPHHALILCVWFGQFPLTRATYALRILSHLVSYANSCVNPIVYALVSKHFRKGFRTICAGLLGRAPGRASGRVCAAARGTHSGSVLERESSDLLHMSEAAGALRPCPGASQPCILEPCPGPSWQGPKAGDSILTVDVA
Procedure: (§1) ND indicates ‘not determined’.
Peptide was dissolved in 0.3% ammonia. […] Different isomers were purified and lyophilized.

GalR1 [1] = target: T2, GalR1 (Homo sapiens, UniProt P47211); test: inhibition of cAMP synthesis in CHO-K1 cells expressing GalR1 (DiscoverX kit); assay type: cell-based; design: host or cells: CHO-K1; settings: for Ratio EC50s relative to Gal-(1-15), GalR1 cAMP inhibition: Table 2, variants chemically obtained by base-assisted sulfur extrusion, 'no' wraps to 'activity' = no activity
T2 sequence (P47211 1-349): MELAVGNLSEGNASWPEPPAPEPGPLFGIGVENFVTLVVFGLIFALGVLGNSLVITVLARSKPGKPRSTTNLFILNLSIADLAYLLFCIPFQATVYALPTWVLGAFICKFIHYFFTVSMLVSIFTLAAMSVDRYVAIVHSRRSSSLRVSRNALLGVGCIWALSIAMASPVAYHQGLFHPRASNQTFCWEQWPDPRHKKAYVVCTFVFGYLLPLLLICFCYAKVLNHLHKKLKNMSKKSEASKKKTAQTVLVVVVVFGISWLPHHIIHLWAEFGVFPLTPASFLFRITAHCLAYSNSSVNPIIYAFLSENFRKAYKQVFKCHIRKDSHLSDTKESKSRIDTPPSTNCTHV
Procedure: (§2) The biological activity of the (lanthi)galanins was determined in CHO-K1 cell lines that express either the GalR1, or GalR2 receptor. Activity measurements were performed using commercial kits from DiscoverX for determining arrestin recruitment (GalR1, GalR2) and inhibition of cAMP synthesis (GalR1). In addition, HEK293 cell lines that express the GalR2 receptor have been used for methods from Molecular Probes to measure calcium efflux (GalR2).
as §1
(§3) Peptide was dissolved in 0.3% ammonia. Peptides were incubated o/n at 37° C. for the introduction of the lanthionine via base assisted sulfur extrusion of the disulfide bridged peptide. […] Different isomers were purified and lyophilized. Dry peptides were dissolved in 100 mM phosphate buffer pH=7.6 and peptides were incubated o/n at 50° C. After HPLC purification peptides with a pE formation were selected and used in the different Galanin receptor activation assays.

GalR1 [2] = target: T2, GalR1
Procedure: as §2, §1, §3

[3] = system: Galanin receptor (GalR1, GalR2); test: Galanin receptor activation assays, overall statements in words; assay type: cell-based; settings: overall statement on galanin receptor activation
Procedure: as §2
Peptide was dissolved in 0.3% ammonia. Peptides were incubated o/n at 37° C. for the introduction of the lanthionine via base assisted sulfur extrusion of the disulfide bridged peptide. Different isomers could be isolated by HPLC applying the same method as was used as for the biologically produced peptides. Different isomers were purified and lyophilized. Dry peptides were dissolved in 100 mM phosphate buffer pH=7.6 and peptides were incubated o/n at 50° C. After HPLC purification peptides with a pE formation were selected and used in the different Galanin receptor activation assays.

In the case of `CC(C)C[C@H](NC(=O)[C@H](CC(C)C)NC(=O)[C@H](Cc1ccc(O)cc1)NC(=O)CNC(=O)[C@H](C)NC(=O)[C@H](C)NC(=O)[C@H](CC(N)=O)NC(=O)[C@H](CC(C)C)NC(=O)[C@H](CC(N)=O)NC(=O)[C@H](Cc1c[nH]c2ccccc12)NC(=O)[C@@H]1CCC(=O)N1)C(=O)NCC(=O)N1CCC[C@H]1C(=O)NC1CSCC(C(=O)O)NC(=O)[C@H](C(C)C)NC(=O)[C@H](C)NC1=O` (single isomer, unassigned) [4178 A], the “Ratio EC50s relative to Gal-(1-15), GalR2 Ca efflux” value (GalR2) is reported as 11, the “Ratio EC50s relative to Gal-(1-15), GalR2 β-Arrestin” value (GalR2) is reported as 137 and the “Ratio EC50s relative to Gal-(1-15), GalR1 cAMP inhibition” value (GalR1 [1]) is reported as “no”. For the same compound, the “Ratio EC50s relative to Gal-(1-15), GalR1 β-Arrestin” value (GalR1 [2]) was over 1000.

In the case of `CC(C)C[C@H](NC(=O)[C@H](CC(C)C)NC(=O)[C@H](Cc1ccc(O)cc1)NC(=O)CNC(=O)[C@H](C)NC(=O)[C@H](C)NC(=O)[C@H](CC(N)=O)NC(=O)[C@H](CC(C)C)NC(=O)[C@H](CC(N)=O)NC(=O)[C@H](Cc1c[nH]c2ccccc12)NC(=O)[C@@H]1CCC(=O)N1)C(=O)NCC(=O)N1CCC[C@H]1C(=O)NC1CSCC(C(=O)O)NC(=O)[C@H](C(C)C)NC(=O)[C@H](C)NC1=O` (single isomer, unassigned) [4178 B], the “Ratio EC50s relative to Gal-(1-15), GalR2 Ca efflux” value (GalR2) is reported as 1.4, the “Ratio EC50s relative to Gal-(1-15), GalR2 β-Arrestin” value (GalR2) is reported as 2.3 and the “Ratio EC50s relative to Gal-(1-15), GalR1 cAMP inhibition” value (GalR1 [1]) is reported as “no”. The “activity, in words” value [3] was “highly active” and the “Ratio EC50s relative to Gal-(1-15), GalR1 β-Arrestin” value (GalR1 [2]) was 39.

For `CC(C)C[C@@H]1NC(=O)[C@H](CC(C)C)NC(=O)[C@H](Cc2ccc(O)cc2)NC(=O)C(NC(=O)[C@H](C)NC(=O)[C@H](C)NC(=O)[C@H](CC(N)=O)NC(=O)[C@H](CC(C)C)NC(=O)[C@@H](NC(=O)[C@H](Cc2c[nH]c3ccccc23)NC(=O)[C@@H]2CCC(=O)N2)[C@@H](C)O)CSCC(C(=O)O)NC1=O` (single isomer, unassigned) [4179 A, pEWTLNAAlanYLLlan], the “Ratio EC50s relative to Gal-(1-15), GalR2 Ca efflux” value (GalR2) was 94, the “Ratio EC50s relative to Gal-(1-15), GalR1 cAMP inhibition” value (GalR1 [1]) was “no” and the “Ratio EC50s relative to Gal-(1-15), GalR1 β-Arrestin” value (GalR1 [2]; Table 2, variants chemically obtained by base-assisted sulfur extrusion, 'no' wraps to 'activity' = no activity) was “no”.

In the case of `CC(C)C[C@@H]1NC(=O)[C@H](CC(C)C)NC(=O)[C@H](Cc2ccc(O)cc2)NC(=O)C(NC(=O)[C@H](C)NC(=O)[C@H](C)NC(=O)[C@H](CC(N)=O)NC(=O)[C@H](CC(C)C)NC(=O)[C@@H](NC(=O)[C@H](Cc2c[nH]c3ccccc23)NC(=O)[C@@H]2CCC(=O)N2)[C@@H](C)O)CSCC(C(=O)O)NC1=O` (single isomer, unassigned) [4179 B, pEWTLNAAlanYLLlan], the “Ratio EC50s relative to Gal-(1-15), GalR2 Ca efflux” value (GalR2) is reported as 2.6, the “Ratio EC50s relative to Gal-(1-15), GalR2 β-Arrestin” value (GalR2) is reported as 3.8 and the “Ratio EC50s relative to Gal-(1-15), GalR1 cAMP inhibition” value (GalR1 [1]) is reported as “no”. For the same compound, the “activity, in words” value [3] was “high activity” and the “Ratio EC50s relative to Gal-(1-15), GalR1 β-Arrestin” value (GalR1 [2]) was 720.

For `CC(C)C[C@H](NC(=O)[C@H](CC(C)C)NC(=O)[C@H](Cc1ccc(O)cc1)NC(=O)CNC(=O)[C@H](C)NC(=O)[C@H](C)NC(=O)[C@H](CC(N)=O)NC(=O)[C@H](CC(C)C)NC(=O)[C@H](CC(N)=O)NC(=O)[C@H](Cc1c[nH]c2ccccc12)NC(=O)CN)C(=O)NCC(=O)N[C@@H](C)C(=O)N[C@H]1C(=O)N[C@@H](C)C(=O)N[C@@H](C(C)C)C(=O)N[C@H](C(=O)N[C@@H](CC(N)=O)C(=O)N[C@@H](Cc2c[nH]cn2)C(=O)N[C@@H](CCCNC(=N)N)C(=O)O)CS[C@H]1C` [GalM51], the “cAMP production via GalR1, in words” value (GalR1 [1]; FIG. 3) was “inhibit cAMP production via GalR1” and the “β-arrestin recruitment via GalR1, in words” value (GalR1 [2]; FIG. 1) was “induced β-arrestin recruitment via GalR1”.

Reference: patent US10501514B2, “Cyclic galanin-analogs and uses thereof” (LanthioPep B.V., priority 2015, dated 2019)
